The source made the active and inactive calls. The rule behind the calls is not given here.
System: CCRIS mutagenicity, Ames/micronucleus/aberration tests
Assay: CCRIS mutagenicity studies
[1] = Test System: AMES SALMONELLA TYPHIMURIUM, Strain/Indicator: TA98, Metabolic Activation: NONE, Method: PREINCUBATION
[2] = Test System: AMES SALMONELLA TYPHIMURIUM, Strain/Indicator: TA100, Metabolic Activation: NONE, Method: PREINCUBATION
[3] = Test System: AMES SALMONELLA TYPHIMURIUM, Strain/Indicator: TA1535, Metabolic Activation: NONE, Method: PREINCUBATION
[4] = Test System: AMES SALMONELLA TYPHIMURIUM, Strain/Indicator: TA98, Metabolic Activation: NONE, Method: STANDARD PLATE
[5] = Test System: AMES SALMONELLA TYPHIMURIUM, Strain/Indicator: TA98, Metabolic Activation: S-9, Method: STANDARD PLATE
[6] = Test System: AMES SALMONELLA TYPHIMURIUM, Strain/Indicator: TA97, Metabolic Activation: NONE, Method: STANDARD PLATE
[7] = Test System: AMES SALMONELLA TYPHIMURIUM, Strain/Indicator: TA100, Metabolic Activation: NONE, Method: STANDARD PLATE

Measured: mutagenic call

O=C(O)c1cc2ccccc2cc1O
inactive: [1] inactive; negative | Test System: AMES SALMONELLA TYPHIMURIUM, Strain/Indicator: TA98, Metabolic Activation: RAT LIVER S-9, PHENOBARBITAL AND BETA-NAPHTHOFLAVONE, Method: PREINCUBATION inactive; negative | Test System: AMES SALMONELLA TYPHIMURIUM, Strain/Indicator: TA98, Metabolic Activation: RAT, LIVER, S-9, KC 500, Method: PREINCUBATION inactive; negative | [2] inactive; negative | Test System: AMES SALMONELLA TYPHIMURIUM, Strain/Indicator: TA100, Metabolic Activation: RAT LIVER S-9, PHENOBARBITAL AND BETA-NAPHTHOFLAVONE, Method: PREINCUBATION inactive; negative | Test System: AMES SALMONELLA TYPHIMURIUM, Strain/Indicator: TA100, Metabolic Activation: RAT, LIVER, S-9, KC 500, Method: PREINCUBATION inactive; negative | [3] inactive; negative | Test System: AMES SALMONELLA TYPHIMURIUM, Strain/Indicator: TA1535, Metabolic Activation: RAT LIVER S-9, PHENOBARBITAL AND BETA-NAPHTHOFLAVONE, Method: PREINCUBATION inactive; negative | Test System: AMES SALMONELLA TYPHIMURIUM, Strain/Indicator: TA1535, Metabolic Activation: RAT, LIVER, S-9, KC 500, Method: PREINCUBATION inactive; negative | Test System: AMES SALMONELLA TYPHIMURIUM, Strain/Indicator: TA1537, Metabolic Activation: RAT LIVER S-9, PHENOBARBITAL AND BETA-NAPHTHOFLAVONE, Method: PREINCUBATION inactive; negative | Test System: AMES SALMONELLA TYPHIMURIUM, Strain/Indicator: TA1537, Metabolic Activation: RAT, LIVER, S-9, KC 500, Method: PREINCUBATION inactive; negative | Test System: AMES SALMONELLA TYPHIMURIUM, Strain/Indicator: TA1538, Metabolic Activation: NONE, Method: PREINCUBATION inactive; negative | Test System: AMES SALMONELLA TYPHIMURIUM, Strain/Indicator: TA1538, Metabolic Activation: RAT LIVER S-9, PHENOBARBITAL AND BETA-NAPHTHOFLAVONE, Method: PREINCUBATION inactive; negative | Test System: AMES SALMONELLA TYPHIMURIUM, Strain/Indicator: TA1538, Metabolic Activation: RAT, LIVER, S-9, KC 500, Method: PREINCUBATION inactive; negative | Test System: E. COLI, Strain/Indicator: WP2UVRA/PKM101, Metabolic Activation: NONE, Method: PREINCUBATION inactive; negative | Test System: E. COLI, Strain/Indicator: WP2UVRA/PKM101, Metabolic Activation: RAT LIVER S-9, PHENOBARBITAL AND BETA-NAPHTHOFLAVONE, Method: PREINCUBATION inactive; negative | Test System: E. COLI, Strain/Indicator: WP2 UVRA, Metabolic Activation: NONE, Method: PREINCUBATION inactive; negative | Test System: E. COLI, Strain/Indicator: WP2UVRA, Metabolic Activation: NONE, Method: PREINCUBATION inactive; negative | Test System: E. COLI, Strain/Indicator: WP2UVRA, Metabolic Activation: RAT LIVER S-9, PHENOBARBITAL AND BETA-NAPHTHOFLAVONE, Method: PREINCUBATION inactive; negative | Test System: E. COLI, Strain/Indicator: WP2 UVRA, Metabolic Activation: RAT, LIVER, S-9, KC 500, Method: PREINCUBATION inactive; negative
active: End Point: In vitro chromosomal aberrations, Test System: Chinese hamster lung (CHL/IU) cells, Metabolic Activation: Rat, Liver, S9, Phenobarbital and 5,6-benzoflavone active; positive (structural changes and ploidy). precipitation of test chemical at 1.0

Cc1ccc(NCC2(O)OC[C@@H](O)[C@@H](O)[C@@H]2O)cc1 (stereo not given in full)
inactive: Test System: AMES SALMONELLA TYPHIMURIUM, Strain/Indicator: TA100, Metabolic Activation: NONE, Method: LIQUID INCUBATION inactive; negative

C[C@@H]1C[C@@]2(O[C@H]2C)C(=O)O[C@@H]2CCN3CC=C(COC(=O)[C@]1(C)O)[C@H]23
active: Test System: UDS RAT HEPATOCYTES, Strain/Indicator: THY INCORP, Metabolic Activation: NONE, Method: AUTORADIOGRAPHY active; positive

C=C(Br)C(=O)O
inactive: [2] inactive; negative | Test System: AMES SALMONELLA TYPHIMURIUM, Strain/Indicator: TA100, Metabolic Activation: RAT, LIVER, MICROSOMES, Method: PREINCUBATION inactive; negative

Clc1ccccc1-c1nc2ccccc2o1
inactive: [4] inactive; negative | [5] inactive; negative

CC(C)CC(C)Nc1ccc(Nc2ccccc2)cc1 (stereo not given)
inactive: Test System: AMES SALMONELLA TYPHIMURIUM, Strain/Indicator: TA97, Metabolic Activation: MOUSE, LIVER, S-9, DELOR 103, Method: STANDARD PLATE inactive; negative | [6] inactive; negative | Test System: AMES SALMONELLA TYPHIMURIUM, Strain/Indicator: TA98, Metabolic Activation: HAMSTER, LIVER, S-9, AROCLOR 1254 (10%), Method: PREINCUBATION inactive; negative | Test System: AMES SALMONELLA TYPHIMURIUM, Strain/Indicator: TA98, Metabolic Activation: MOUSE, LIVER, S-9, DELOR 103, Method: STANDARD PLATE inactive; negative | [1] inactive; negative | [4] inactive; negative | Test System: AMES SALMONELLA TYPHIMURIUM, Strain/Indicator: TA98, Metabolic Activation: RAT, LIVER, S-9, AROCLOR 1254 (10%), Method: PREINCUBATION inactive; negative | Test System: AMES SALMONELLA TYPHIMURIUM, Strain/Indicator: TA100, Metabolic Activation: HAMSTER, LIVER, S-9, AROCLOR 1254 (10%), Method: PREINCUBATION inactive; negative | Test System: AMES SALMONELLA TYPHIMURIUM, Strain/Indicator: TA100, Metabolic Activation: MOUSE, LIVER, S-9, DELOR 103, Method: STANDARD PLATE inactive; negative | [2] inactive; negative | [7] inactive; negative | Test System: AMES SALMONELLA TYPHIMURIUM, Strain/Indicator: TA100, Metabolic Activation: RAT, LIVER, S-9, AROCLOR 1254 (10%), Method: PREINCUBATION inactive; negative | Test System: AMES SALMONELLA TYPHIMURIUM, Strain/Indicator: TA1535, Metabolic Activation: HAMSTER, LIVER, S-9, AROCLOR 1254 (10%), Method: PREINCUBATION inactive; negative | [3] inactive; negative | Test System: AMES SALMONELLA TYPHIMURIUM, Strain/Indicator: TA1535, Metabolic Activation: NONE, Method: STANDARD PLATE inactive; negative | Test System: AMES SALMONELLA TYPHIMURIUM, Strain/Indicator: TA1535, Metabolic Activation: RAT, LIVER, S-9, AROCLOR 1254 (10%), Method: PREINCUBATION inactive; negative | Test System: AMES SALMONELLA TYPHIMURIUM, Strain/Indicator: TA1537, Metabolic Activation: HAMSTER, LIVER, S-9, AROCLOR 1254 (10%), Method: PREINCUBATION inactive; negative | Test System: AMES SALMONELLA TYPHIMURIUM, Strain/Indicator: TA1537, Metabolic Activation: NONE, Method: PREINCUBATION inactive; negative | Test System: AMES SALMONELLA TYPHIMURIUM, Strain/Indicator: TA1537, Metabolic Activation: RAT, LIVER, S-9, AROCLOR 1254 (10%), Method: PREINCUBATION inactive; negative | Test System: AMES SALMONELLA TYPHIMURIUM, Strain/Indicator: TA1538, Metabolic Activation: NONE, Method: STANDARD PLATE inactive; negative

COc1ccc2cc(CCC(C)=O)ccc2c1
inactive: [6] inactive; negative | Test System: AMES SALMONELLA TYPHIMURIUM, Strain/Indicator: TA97, Metabolic Activation: S-9, Method: STANDARD PLATE inactive; negative | [4] inactive; negative | [5] inactive; negative | [7] inactive; negative | Test System: AMES SALMONELLA TYPHIMURIUM, Strain/Indicator: TA100, Metabolic Activation: S-9, Method: STANDARD PLATE inactive; negative | Test System: AMES SALMONELLA TYPHIMURIUM, Strain/Indicator: TA102, Metabolic Activation: NONE, Method: STANDARD PLATE inactive; negative | Test System: AMES SALMONELLA TYPHIMURIUM, Strain/Indicator: TA102, Metabolic Activation: S-9, Method: STANDARD PLATE inactive; negative
